In ChEMBL document CHEMBL1201862, “PubChem BioAssay data set” (2004):
Calls of active or inactive are those of the source.

Columns and labels:
HEK293 = test: inhibitors of LMP1-driven NF-kB reporter, dose response, cell-based, HEK293, luciferase, cherry-pick (AID 588343); type: functional; settings: Homo sapiens
[1] = molecular target: T1, DNA dC->dU-editing enzyme APOBEC-3G (Homo sapiens, UniProt Q9HC16); test: Dose Response confirmation of small molecule APOBEC3G DNA Deaminase Inhibitors via a fluorescence-based single-stranded DNA deaminase assay. [Related pubchem assays (depositor defined):AID493012, AID493028]; type: functional
Cytochrome P450 2C19 = Cytochrome P450 2C19 (Homo sapiens, UniProt P33261); test: Cytochrome panel assay with activity outcomes. Panel member name: p450-cyp2c19 Compounds with AC50 equal or less than 10 uM are considered active; type: functional
Cytochrome P450 3A4 = Cytochrome P450 3A4 (Homo sapiens, UniProt P08684);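 note: CYP3A4 tested as one member of a cytochrome P450 panel screen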
[2] = A cytotoxicity screen of small molecule inhibitors of the PhoP region in Salmonella typhi identified in the primary screen. [Related pubchem assays: 1850, 1864, 1985 ]; type: functional
Cytochrome P450 2C9 [3] = molecular target: T2, Cytochrome P450 2C9 (Homo sapiens, UniProt P11712)
[4] = molecular target: Glyceraldehyde-3-phosphate dehydrogenase (Homo sapiens, UniProt P04406)
Cytochrome P450 1A2 = molecular target: T3, Cytochrome P450 1A2 (Homo sapiens, UniProt P05177);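 note: PubChem cytochrome P450 panel assay, CYP1A2 panel member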
T3 sequence (P05177 whole entry): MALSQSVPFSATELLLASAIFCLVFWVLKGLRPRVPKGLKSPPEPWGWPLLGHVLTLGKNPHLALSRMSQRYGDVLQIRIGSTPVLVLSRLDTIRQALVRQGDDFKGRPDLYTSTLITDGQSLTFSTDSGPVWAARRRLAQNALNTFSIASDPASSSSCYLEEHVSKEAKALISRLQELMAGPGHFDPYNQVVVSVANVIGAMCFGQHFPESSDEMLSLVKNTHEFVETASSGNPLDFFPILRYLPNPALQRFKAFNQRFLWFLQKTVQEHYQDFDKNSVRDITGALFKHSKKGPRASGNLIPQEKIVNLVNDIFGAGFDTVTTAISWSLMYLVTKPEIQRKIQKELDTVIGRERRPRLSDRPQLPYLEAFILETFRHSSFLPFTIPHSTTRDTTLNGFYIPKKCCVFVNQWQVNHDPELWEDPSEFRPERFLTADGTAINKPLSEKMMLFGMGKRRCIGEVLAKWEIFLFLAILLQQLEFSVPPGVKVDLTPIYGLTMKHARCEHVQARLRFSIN

Cytochrome P450 2C9 [5] = molecular target: T2, Cytochrome P450 2C9; remark: listed apart in the source
Prothrombin = Prothrombin (Homo sapiens, UniProt P00734); test: Thrombin 1536 HTS Dose Response Confirmation. [Related pubchem assays: 1046 (Thrombin 1536 HTS; hits were confirmed in this assay)]; type: functional
[6] = molecular target: Induced myeloid leukemia cell differentiation protein Mcl-1 (Homo sapiens, UniProt Q07820); type: functional
[7] = molecular target: T1, DNA dC->dU-editing enzyme APOBEC-3G; type: functional
[8] = molecular target: DNA dC->dU-editing enzyme APOBEC-3A (Homo sapiens, UniProt P31941); test: Dose Response confirmation of small molecule APOBEC3A DNA Deaminase Inhibitors via a fluorescence-based single-stranded DNA deaminase assay. [Related pubchem assays (depositor defined):AID493011, AID493024]; type: functional
[9] = control 3'UTR Renilla luciferase suppression, dose response, counter-screen for Shn3 inhibitor project, cell-based, Clone20-Shn3RL, cherry-picked (AID 624133); type: functional
[10] = HepG2 cell cytotoxicity, dose response, cytotoxicity control for Shn3 inhibitor project, CellTiter-Glo, cherry-picked (AID 624134); type: functional, cell-based
[11] = Shn3 3'UTR reporter inhibitors, dose response, cell-based, Clone20 osteoblasts, firefly luciferase, cherry-picked (AID 624132); type: functional;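 note: firefly luciferase luminescence from reporter carrying the Shn3 3'UTR in osteoblasts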
Caspase-6 = molecular target: T4, Caspase-6 (Homo sapiens, UniProt P55212); test: human caspase-6 inhibitors, dose response, biochemical, VEID-R110 fluorescence, cherry-pick (AID 720632)
T4 sequence (P55212 whole entry): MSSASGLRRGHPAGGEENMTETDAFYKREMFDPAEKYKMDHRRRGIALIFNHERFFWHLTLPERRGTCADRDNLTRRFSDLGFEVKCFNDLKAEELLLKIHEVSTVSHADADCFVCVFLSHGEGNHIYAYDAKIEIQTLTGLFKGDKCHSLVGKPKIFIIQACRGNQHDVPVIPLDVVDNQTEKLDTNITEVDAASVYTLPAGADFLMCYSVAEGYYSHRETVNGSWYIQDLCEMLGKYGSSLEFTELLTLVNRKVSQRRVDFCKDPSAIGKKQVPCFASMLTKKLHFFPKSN

[12] = molecular target: T5, Carboxy-terminal domain RNA polymerase II polypeptide A small phosphatase 1 (Homo sapiens, UniProt Q9GZU7); test: inhibitors of CTDSP1, concentration-response testing, biochemical assay, absorbance-based, actives from ultra-high-throughput screening (AID 540297); type: functional
T5 sequence (Q9GZU7 whole entry): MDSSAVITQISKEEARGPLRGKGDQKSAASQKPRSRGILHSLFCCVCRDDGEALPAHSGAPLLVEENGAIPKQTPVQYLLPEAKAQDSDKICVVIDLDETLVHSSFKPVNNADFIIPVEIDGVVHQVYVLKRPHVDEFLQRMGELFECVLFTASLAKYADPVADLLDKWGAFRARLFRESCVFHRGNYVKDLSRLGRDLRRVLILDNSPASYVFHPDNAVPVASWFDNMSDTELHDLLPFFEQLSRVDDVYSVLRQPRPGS

Paired box protein Pax-8 = Paired box protein Pax-8 (Homo sapiens, UniProt Q06710); test: inhibitors of PAX8-driven TPO luciferase reporter, dose response, RMG-I cells, cherry-pick (AID 687027); type: functional, cell-based;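 note: luciferase reporter driven by Pax8 target thyroperoxidase promoter measured by SteadyGlo luminescence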
[13] = cytotoxicity in OVCAR8 ovarian cancer cells, dose response, PAX8 project, cell-based, plate reader, dry powder samples (AID 743197); type: functional; settings: OVCAR-8

Sequence of Cytochrome P450 3A4 (P08684 whole entry): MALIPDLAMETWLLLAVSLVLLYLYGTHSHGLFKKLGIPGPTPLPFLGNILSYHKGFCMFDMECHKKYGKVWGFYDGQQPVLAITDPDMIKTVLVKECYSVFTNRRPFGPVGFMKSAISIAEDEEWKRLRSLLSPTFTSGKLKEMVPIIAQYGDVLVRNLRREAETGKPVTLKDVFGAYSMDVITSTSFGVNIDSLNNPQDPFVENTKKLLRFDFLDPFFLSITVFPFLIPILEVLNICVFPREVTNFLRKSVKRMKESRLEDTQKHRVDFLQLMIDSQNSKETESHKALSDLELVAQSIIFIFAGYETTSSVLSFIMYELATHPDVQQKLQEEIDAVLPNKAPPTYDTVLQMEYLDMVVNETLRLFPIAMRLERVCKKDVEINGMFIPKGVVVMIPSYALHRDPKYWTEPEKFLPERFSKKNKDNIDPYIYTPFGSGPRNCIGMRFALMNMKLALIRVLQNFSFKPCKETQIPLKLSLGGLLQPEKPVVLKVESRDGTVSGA
T2 sequence (P11712 whole entry): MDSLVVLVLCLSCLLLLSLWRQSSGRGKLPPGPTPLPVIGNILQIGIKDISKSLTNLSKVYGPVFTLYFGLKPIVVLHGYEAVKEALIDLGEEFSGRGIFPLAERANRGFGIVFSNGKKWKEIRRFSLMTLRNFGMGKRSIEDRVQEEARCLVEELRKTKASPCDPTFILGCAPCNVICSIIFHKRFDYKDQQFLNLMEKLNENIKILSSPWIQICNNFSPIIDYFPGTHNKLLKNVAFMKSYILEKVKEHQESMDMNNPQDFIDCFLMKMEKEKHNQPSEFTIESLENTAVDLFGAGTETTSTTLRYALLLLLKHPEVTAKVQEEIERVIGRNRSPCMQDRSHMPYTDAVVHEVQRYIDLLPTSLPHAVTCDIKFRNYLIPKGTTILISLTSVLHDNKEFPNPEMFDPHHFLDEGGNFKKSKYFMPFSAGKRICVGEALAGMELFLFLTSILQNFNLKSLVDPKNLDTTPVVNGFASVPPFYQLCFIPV
Sequence of Cytochrome P450 2C19 (P33261 whole entry): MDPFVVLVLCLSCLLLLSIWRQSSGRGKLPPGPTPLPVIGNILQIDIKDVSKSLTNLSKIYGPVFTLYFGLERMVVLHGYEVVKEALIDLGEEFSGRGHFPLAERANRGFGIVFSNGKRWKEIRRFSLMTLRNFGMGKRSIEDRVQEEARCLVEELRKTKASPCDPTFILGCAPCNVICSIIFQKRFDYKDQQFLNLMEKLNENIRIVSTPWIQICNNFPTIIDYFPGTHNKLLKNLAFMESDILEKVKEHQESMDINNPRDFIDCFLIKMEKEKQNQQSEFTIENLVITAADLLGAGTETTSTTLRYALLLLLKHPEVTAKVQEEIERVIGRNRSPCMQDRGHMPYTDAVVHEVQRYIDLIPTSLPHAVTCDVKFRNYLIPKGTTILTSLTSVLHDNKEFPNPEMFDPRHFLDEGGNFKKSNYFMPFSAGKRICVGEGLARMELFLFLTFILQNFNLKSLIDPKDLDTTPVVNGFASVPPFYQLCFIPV
T1 sequence (Q9HC16 whole entry): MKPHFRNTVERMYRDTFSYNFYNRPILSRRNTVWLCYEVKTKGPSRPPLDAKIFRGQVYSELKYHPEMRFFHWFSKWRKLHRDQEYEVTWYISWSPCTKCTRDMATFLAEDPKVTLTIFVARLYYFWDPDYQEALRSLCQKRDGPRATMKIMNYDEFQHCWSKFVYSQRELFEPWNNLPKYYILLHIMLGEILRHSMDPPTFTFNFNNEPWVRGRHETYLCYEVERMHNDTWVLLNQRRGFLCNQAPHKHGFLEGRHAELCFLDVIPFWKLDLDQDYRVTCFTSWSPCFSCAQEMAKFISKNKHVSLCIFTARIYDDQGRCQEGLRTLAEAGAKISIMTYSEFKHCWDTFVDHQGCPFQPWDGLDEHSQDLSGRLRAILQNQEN
Sequence of Glyceraldehyde-3-phosphate dehydrogenase (P04406 whole entry): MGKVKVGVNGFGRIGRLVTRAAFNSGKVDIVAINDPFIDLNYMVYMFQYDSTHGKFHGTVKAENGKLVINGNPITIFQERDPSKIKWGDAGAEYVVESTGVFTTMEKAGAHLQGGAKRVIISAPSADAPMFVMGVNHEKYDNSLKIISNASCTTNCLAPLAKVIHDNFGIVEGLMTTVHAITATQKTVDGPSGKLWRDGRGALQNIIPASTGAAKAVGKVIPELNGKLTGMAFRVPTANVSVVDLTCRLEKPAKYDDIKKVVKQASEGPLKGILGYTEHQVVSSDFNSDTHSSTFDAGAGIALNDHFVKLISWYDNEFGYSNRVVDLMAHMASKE
Sequence of Paired box protein Pax-8 (Q06710 whole entry): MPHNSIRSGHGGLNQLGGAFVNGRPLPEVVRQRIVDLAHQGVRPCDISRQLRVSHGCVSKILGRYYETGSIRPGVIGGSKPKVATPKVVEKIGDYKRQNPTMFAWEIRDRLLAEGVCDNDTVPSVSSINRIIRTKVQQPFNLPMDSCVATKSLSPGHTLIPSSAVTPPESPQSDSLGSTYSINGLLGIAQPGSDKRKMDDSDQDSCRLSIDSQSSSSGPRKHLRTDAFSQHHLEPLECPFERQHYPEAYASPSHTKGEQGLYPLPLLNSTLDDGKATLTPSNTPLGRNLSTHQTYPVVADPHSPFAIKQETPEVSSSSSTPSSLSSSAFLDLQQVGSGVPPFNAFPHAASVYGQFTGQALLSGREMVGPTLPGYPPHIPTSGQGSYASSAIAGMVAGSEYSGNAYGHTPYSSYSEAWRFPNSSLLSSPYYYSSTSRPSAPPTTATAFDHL
Sequence of Induced myeloid leukemia cell differentiation protein Mcl-1 (Q07820 whole entry): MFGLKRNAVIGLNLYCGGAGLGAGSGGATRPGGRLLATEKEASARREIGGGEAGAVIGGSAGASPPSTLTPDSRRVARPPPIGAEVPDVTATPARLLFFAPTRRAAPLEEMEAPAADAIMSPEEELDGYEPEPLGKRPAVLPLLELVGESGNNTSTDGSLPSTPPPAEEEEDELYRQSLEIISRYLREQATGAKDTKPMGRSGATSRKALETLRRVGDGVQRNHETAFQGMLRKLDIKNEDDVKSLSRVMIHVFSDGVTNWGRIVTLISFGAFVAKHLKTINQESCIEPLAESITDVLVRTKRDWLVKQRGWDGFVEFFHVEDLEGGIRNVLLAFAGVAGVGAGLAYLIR
Sequence of DNA dC->dU-editing enzyme APOBEC-3A (P31941 whole entry): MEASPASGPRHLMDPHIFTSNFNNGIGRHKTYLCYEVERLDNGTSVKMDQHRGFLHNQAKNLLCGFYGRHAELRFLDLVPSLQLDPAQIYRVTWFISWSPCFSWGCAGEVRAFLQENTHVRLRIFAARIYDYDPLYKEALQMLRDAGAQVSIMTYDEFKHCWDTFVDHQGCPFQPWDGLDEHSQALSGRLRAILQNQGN

**Q.** For `Cc1ccc(-n2c(C)c([N+](=O)[O-])c3ccc(O)c(CN(C)C)c32)cc1`, which AC50 (HEK293) is on record?
**A.** The AC50 was 8.54 µM (active).

**Q.** Which IC50 [1] does the source give for `CC(C)Cn1c(S)nnc1-c1ccc(F)cc1` here?
**A.** The IC50 was 9.54 µM (active).

**Q.** For `O=C(NOCc1ccccc1)c1ccc(Cl)cc1Cl`, which AC50 (HEK293) is on record?
**A.** The AC50 was 3.33 µM (active).

**Q.** What does the source list for `CN1C(=O)NC(c2ccc(O)cc2)C(C(=O)c2cccs2)C1(O)C(F)(F)F` (stereo unspecified)?
**A.** AC50 (Cytochrome P450 2C19; read-out: AC50): 15.8 µM (inconclusive); AC50 (Cytochrome P450 3A4): 25.1 µM (inconclusive); EC50 [2]: > 50 µM (active); AC50 (Cytochrome P450 2C9 [3]): 39.8 µM (inconclusive)

**Q.** For `Cc1ccc(NC(=O)c2sccc2C)cc1[N+](=O)[O-]`, which EC50 [2] is on record?
**A.** The EC50 was > 50 µM (active).

**Q.** Which IC50 [4] does the source give for `C=CCc1cccc2cc(C(=O)Nc3cccc(C(=O)O)c3)c(=O)oc12` here?
**A.** Its IC50 is > 100 µM (not active).

**Q.** For `CCCCC(=O)NC(=S)Nc1cccc(NC(=O)CC)c1`, which AC50 (Cytochrome P450 1A2) is on record?
**A.** Its AC50 is 15.8 µM (inconclusive).

**Q.** And the AC50 (Cytochrome P450 3A4)?
**A.** The AC50 was 20 µM (inconclusive).

**Q.** What about the AC50 (Cytochrome P450 2C9 [5]) of the same molecule?
**A.** Its AC50 is “inconclusive”.

**Q.** With `CCN1CCN(CC(=O)c2cc(OC)c(OC)c(OC)c2)CC1` as the molecule, how does the IC50 (Prothrombin) read?
**A.** The IC50 was > 50 µM (not active).

**Q.** For `COc1cc(C2C3=C(O)c4ccccc4C3=Nc3nc(N)nc(O)c32)ccc1O` (stereo unspecified), which IC50 [6] is on record?
**A.** Its IC50 is 2.76 µM (active).

**Q.** Which IC50 [7] does the source give for `CC(C[N+](C)(C)C)OC(=O)C1(c2ccccc2)CCCC1` (stereo unspecified) here?
**A.** Its IC50 is 3.58 µM (active).

**Q.** And the IC50 [8]?
**A.** The IC50 was 2.56 µM (active).

**Q.** What does the source list for `CN(C)c1ccc(C=Cc2ccnc3c(O)cccc23)cc1`?
**A.** AC50 (HEK293): 10 µM (active); AC50 [9]: 2.57 µM (active); AC50 [10]: 52.7 µM (active); AC50 [11]: 1.43 µM (active)

**Q.** For `Cc1ccc(S(=O)(=O)Nc2csc(C)c2C(=O)O)cc1`, which AC50 (Caspase-6) is on record?
**A.** The AC50 was 4.99 µM (active).

**Q.** What about the IC50 [12] of the same molecule?
**A.** The IC50 was 3.94 µM (active).

**Q.** Which AC50 (Paired box protein Pax-8) does the source give for `COc1ccc(CN2[C@H](CO)[C@H]3c4ccccc4NC[C@H]32)cc1` here?
**A.** Its AC50 is 11.2 µM (active).

**Q.** And the AC50 [13]?
**A.** Its AC50 is > 70 µM (inactive).

**Q.** Which AC50 (Cytochrome P450 1A2) does the source give for `CCN1C[C@]2(COC(=O)c3ccccc3N3C(=O)C[C@H](C)C3=O)CC[C@H](OC)[C@]34[C@@H]5C[C@@H]6[C@H](OC)[C@H]5[C@](O)(C[C@@H]6OC)C(O)([C@@H]13)[C@@H](OC)[C@@H]24` here?
**A.** Its AC50 is 39.8 µM (inconclusive).

**Q.** And the AC50 (Cytochrome P450 2C9 [5])?
**A.** Its AC50 is “inconclusive”.

**Q.** Which EC50 [2] does the source give for `O=[N+]([O-])c1ccc(N2CCNCC2)cc1NCc1cccnc1` here?
**A.** The EC50 was > 50 µM (active).

**Q.** With `CCCCN1CCC(COC(=O)c2cc(Cl)c(N)c3c2OCCO3)CC1` as the molecule, how does the AC50 (Cytochrome P450 3A4) read?
**A.** The AC50 was 3.16 µM (inconclusive).

**Q.** And the AC50 (Cytochrome P450 2C9 [5])?
**A.** The AC50 was “inconclusive”.

**Q.** What does the source list for `Cn1cnc(CCN)c1` [N-METHYLHISTAMINE]?
**A.** AC50 (Cytochrome P450 2C19): inconclusive; AC50 (Cytochrome P450 2C9 [5]): inconclusive
